{"source": "patent US10583181B2", "about": "“Recombinant multiple domain fusion protein mitogens and use thereof for inducing enhancement or repression of antigen-specific immunity” (priority 2008, dated 2020)", "key": {"[1]": {"system": "human Fas-apoptosis-sensitive Jurkat T cell line or human peripheral blood T lymphocytes", "assay": "Cell death in Jurkat T cell line or peripheral blood T lymphocytes", "format": "cell-based", "source_text": "According to understanding, the strong cell activation by simultaneous stimulation of a co-stimulation receptor and another death receptor is not a predictable outcome. […] A possible explanation for the strong activation in CD28^+/Fas^+ T cells is that B7-2 and FasL must be located in the close proximity to each other, as is the case when linked together in the B7-2-FasL-IgFc fusion protein."}, "Influenza hemaglutinin": {"system": "Influenza hemaglutinin", "set-up": "species or system Balb/c mice", "settings": "mouse; for HA-specific IgG, secondary response following boost / HA-specific IgG, primary response: in vivo; for HA-specific IgG, primary response: ip"}, "[2]": {"system": "Influenza hemaglutinin-specific T cell response", "set-up": "species or system Balb/c mice", "settings": "mouse, in vivo, ip"}, "[3]": {"system": "Total T cells, CD4+ T cells and CD8+ T cells", "assay": "Proliferation of purified human T cells (total, CD4+, CD8+)", "format": "cell-based", "experimental": "(§1) Human lymphocytes were stimulated for 3 days in 96 U-bottom well plates with various concentrations of recombinant fusion proteins. In some experiments, a NF-κB inhibitor (SN50, 18 μM, Calbiochem, San Diego, Calif., USA) and a MEK1/2 inhibitor (PD98059, 1 μg/ml, Calbiochem) were added to the cell culture media. Cell proliferation was assessed by thymidine uptake assays. Cultured cells were pulsed with 1 μCi/well of [^3H]thymidine (ICN, Costa Mesa, Calif., USA) for 18 hours and then harvested onto glass fiber filters. [^3H]thymidine incorporation was measured by standard liquid scintillation counting techniques. In some experiments, HA antigen-specific cell proliferation response was assayed by the MTT assay [van de Loosdrecht et al., J. Immunol. Methods, 174:311(1994)], which is a direct measure of cell viability.\nPBMCs derived from normal healthy human adults were separated from whole blood using Ficoll-Paque Plus. Peripheral blood lymphocyte (PBL)-T cells, PBL-B cells, CD4^+ T cells, CD8^+ T cells were purified by negative selection using RosetteSep (StemCell Tec. Vancouver, BC, Canada), while non-T cells were purified by negative selection using pan-T magnet beads (M-450, Dynal, Lake Success, N.Y., USA). The purity of human PBL-T cells was greater than 97% as determined by CD3 staining and flow cytometry. […] CD4^+ and CD8^+ T cells were purified to greater than 90% positive for CD4 and CD8, respectively as determined by flow cytometry studies.\nTotal T cells, CD4^+ T cells and CD8^+ T cells were stimulated with either B7-2-FasL-IgFc or control fusion proteins. CD4^+ T cells and CD8^+ T cells were stimulated with various fusion proteins. After 72 hours in culture, cell proliferation was assessed. Data indicates the average and standard deviation of quadruplicate samples. The data represent the three experiments with similar results."}, "IL-2": {"system": "IL-2", "assay": "IL-2 production of T cells (ELISA)", "format": "cell-based, human", "settings": "1 μg/ml, 3 days", "experimental": "(§2) The relative concentrations of TNP-specific human IgG and IgM in supernatants from 4 day cultures were determined by ELISA assays. TNP22-BSA (1 μg/ml) was used to coat assay plates, and alkaline phosphatase-conjugated anti-human IgG (Fab-specific) (Sigma) or anti-human IgM (μ-chain-specific) (Sigma) were used as the detection reagents. The concentration of IL-2 in fusion protein-stimulated culture supernatants was measured by human-IL-2-specific ELISA kit (Roche, Laval, QC, Canada). The lower limit of detection was 30 pg/ml in IL-2 assay.\nT cells were stimulated by B7-2-FasL-IgFc (1 μg/ml) or phytohemagglutinin (5 μg/ml) for 3 days. The concentration of IL-2 in culture supernatants was measured by ELISA assays. The lower limit of detection was 30 pg/ml in IL-2 assay. The data represent the three experiments with similar results."}, "T-bet": {"system": "T-bet", "assay": "T-bet RNA in CD4+ T cells by RT-PCR", "format": "cell-based, human", "settings": "5 days", "experimental": "(§3) Using specific primers, PRDI-BF1 RNA was amplified by RT-PCR (20 cycles) from cytoplasmic RNA derived from PBL cells stimulated for three days with fusion proteins (0.1 μM). T-bet and GATA3 RNAs were amplified by RT-PCR (25 cycles) from cytoplasmic RNA derived from CD4^+ T cells stimulated for five days with fusion proteins (0.1 μM). Each sample was subjected to electrophoresis on agarose gels and stained with ethidium bromide (EtBr) to detect amplified fragments: 594 bp for PRDI-BF1, 206 bp for T-bet and 131 bp for GATA3.\nCD4^+ T cells were stimulated by B7-2-FasL-IgFc (0.1 μM) for 5 days before total RNA was harvested and tested for increased mRNA expression of T-bet (for Th1 differentiation) and GATA-3 (for Th2 differentiation) by RT-PCR. Each sample was electrophoresed on agarose gels and stained with ethidium bromide (EtBr) to detect amplified fragments: 206 bp for T-bet and 131 bp for GATA3. The data represent the three experiments with similar results."}, "[4]": {"system": "human B lymphoma cells (Raji, Daudi)", "assay": "Cell death of human B lymphoma cells after treatment", "format": "cell-based", "settings": "Raji and Daudi cells"}, "human PBMCs": {"system": "human PBMCs", "assay": "Proliferation of human PBMC ([3H]thymidine uptake)", "format": "cell-based", "experimental": "as §1\nWe cultured human PBMCs and mouse spleen cells in the presence of CD40L-FasL-IgFc. Whole blood, obtained from a healthy donor, was twice diluted with Na-PBS (pH 7.2) and peripheral blood mononuclear cells (PBMCs) were separated by Ficoll density gradients (Ficoll-Paque Plus, Amarsham Biotech) by centrifugation (Sorvall RT 6000, 1500 rpm for 15 minutes at room temperature). The peripheral blood mononuclear cells were collected from the interphase between the PBS top layer and Ficoll plus bottom layer, washed with PBS and subjected to cell proliferation assays. […]"}, "[5]": {"system": "PBL-T cells and PBL-non-T cells", "assay": "Proliferation of PBL-T cells versus PBL-non-T cells", "format": "cell-based, human", "settings": "0.1 μM, 3 days", "experimental": "as §1\nPBL-T cells and PBL-non-T cells were stimulated with CD40L-FasL-IgFc (0.1 μM) for three days prior to proliferation assay. […] The data represent the three experiments with similar results. […]\nPBMCs derived from normal healthy human adults were separated from whole blood using Ficoll-Paque Plus. […] The purity of human PBL-T cells was greater than 97% as determined by CD3 staining and flow cytometry. […] CD4^+ and CD8^+ T cells were purified to greater than 90% positive for CD4 and CD8, respectively as determined by flow cytometry studies."}, "[6]": {"system": "B cell (CD19+) and monocyte (CD14+) fractions", "assay": "Phenotype of CD40L-FasL-IgFc activated cells", "format": "cell-based, human", "settings": "cultures stimulated for 5 days"}, "PBL-B cells": {"system": "PBL-B cells", "assay": "TNP-specific IgG/IgM secretion ELISA", "format": "cell-based, human", "settings": "4 days culture, supernatant ELISA", "experimental": "as §2\nWe next assessed the effect on IgG secretion by fusion protein-induced co-clustering of CD40 and Fas in B cells. PBL-B cells were incubated with CD40L-FasL-IgFc for four days and the supernatants were assayed for IgG- and IgM-specific trinitrophenyl (TNP) hapten [Galanaud et al., Cell. Immunol., 106:234 (1987)].\nPBMCs were stimulated with fusion proteins for four days. The relative concentrations of TNP-specific human IgG and IgM in supernatants were determined by ELISA assays. […] The data represent the three experiments with similar results."}, "PRDI-BF1": {"system": "PRDI-BF1", "assay": "PRDI-BF1 RNA by RT-PCR", "format": "cell-based, human", "settings": "0.1 μM, 3 days", "experimental": "as §3\nPBMCs were stimulated with fusion proteins (0.1 μM) for three days. The total RNA was assayed for the message of PRDI-BF1 by RT-PCR. Each sample was electrophoresed on agarose gels and stained with ethidium bromide (EtBr) to detect amplified fragments. The data represent the results from three experiments with similar results."}, "OVA": {"system": "OVA", "assay": "Anti-OVA IgG response in immunized mice (ELISA titer)", "format": "in vivo, Balb/c mice", "experimental": "Balb/c mice (4-6 wks of age) were primed intra peritoneal (i.p.) route with 0.1 ml of protein antigens, OVA albumin (Sigma) or GSK […] (GlaxoSmithKline, Mississauga, Ontario, Canada), in the presence and absence of fusion protein or cDNA harboring plasmid. To determine the antigen-specific IgG titer in the serum of the individual mouse, ELISA were performed using 0.1 μg/ml antigen-coated assay plates (Maxisorp, Nunc 44-2404-21) following the standard procedure.\nBalb/c mice were immunized i.p. with 0.2 μg of OVA and 5 μg of CD40L-FasL-IgFc (indicated as Primed). On Day 14, blood samples were harvested and subsequently mice were injected with 0.2 μg of OVA (indicated as Boosted). Sera from day 14 and day 21 were analysed by ELISA for the IgG activity against OVA. […] Squares indicate mice immunized with OVA alone. Circles indicate mice immunized with both OVA and CD40L-FasL-IgFc. Numbers in squares and circles indicate individual mouse. The […] activity of pre-immune serum from each mouse was equally low at less than 50 in titer."}}, "note": "“Also recorded” adds a separate entry of the source."}
{"substance": "B7-2-FasL-IgFc: fusion protein of human B7-2 extracellular domain, FasL extracellular domain and IgG1 Fc (SEQ ID NO: 17)", "values": [{"measurement": "induction of cell death", "setting": "[1]", "result": "did not induce cell death"}, {"measurement": "humoral and cellular immune responses in vivo", "setting": "Influenza hemaglutinin", "result": "severe repression of humoral and cellular immune responses"}, {"measurement": "HA-specific IgG, secondary response following boost", "setting": "Influenza hemaglutinin", "result": "far lower"}, {"measurement": "HA-specific IgG, primary response", "setting": "Influenza hemaglutinin", "result": "repressed the antibody response"}, {"measurement": "HA-specific CD8+ T cell response", "setting": "[2]", "result": "undetectable"}, {"measurement": "HA-specific response by total T cells", "setting": "[2]", "result": "suppressed the HA-specific response by total T cells"}, {"measurement": "T cell proliferation (mitogenic response)", "setting": "[3]; 72 hours culture", "result": "strong activation of proliferation; also recorded: strong T cell-specific mitogenic response; also recorded: proliferation of both CD4^+ and CD8^+ T cells increased"}, {"measurement": "magnitude of T cell proliferation compared with phytohemagglutinin (PHA)", "setting": "[3]; 72 hours culture", "result": "comparable to that induced by the well-known T cell mitogen PHA; also recorded: comparable to phytohemagglutinin-induced T cell mitogenesis"}, {"measurement": "dose required by CD8+ T cells to achieve similar levels of proliferation to CD4+ T cells", "setting": "[3]; CD8+ versus CD4+ T cells", "result": "> 20", "unit": "fold"}, {"measurement": "IL-2 secretion by T cells", "setting": "IL-2", "result": "secretion of IL-2"}, {"measurement": "T-bet transcription factor RNA", "setting": "T-bet; CD4+ T cells, 0.1 μM", "result": "significant increase"}, {"measurement": "differentiation of CD4+ T cells in vitro", "setting": "T-bet; from T-bet/GATA3 RT-PCR", "result": "skewing towards Th1 subsets"}]}
{"substance": "CD40L-FasL-IgFc: fusion protein of human CD40L extracellular domain, human FasL extracellular domain and human IgG1 Fc (SEQ ID NO: 13)", "values": [{"measurement": "cell death of B lymphoma cells", "setting": "[4]", "result": "did not undergo cell death"}, {"measurement": "cell activation / mitogenic response (proliferation) of PBMC", "setting": "human PBMCs; 3 days stimulation, 3H-thymidine, active even at 0.1-0.01 μg/ml", "result": "significant cell activation; also recorded: greatly exceeded the mitogenic response induced by the co-stimulation with CD40L-IgFc and FasL-IgFc"}, {"measurement": "mitogenic activity after adsorption with Polymixin B", "setting": "human PBMCs; fusion protein pre-absorbed with Polymixin B-coated beads, 3 days", "result": "did not attenuate the mitogenic activity"}, {"measurement": "cell subset specificity of activation (T versus non-T/B cells)", "setting": "[5]", "result": "did not activate T lymphocytes but resulted in a strong mitogenic activity against B cells; also recorded: specific for the non-T cell subsets"}, {"measurement": "increase of B cell (CD19+) fraction", "setting": "[6]", "result": 30, "unit": "%"}, {"measurement": "increase of monocyte (CD14+) fraction", "setting": "[6]", "result": 15, "unit": "%"}, {"measurement": "anti-TNP IgG secretion", "setting": "PBL-B cells", "result": "significantly increased"}, {"measurement": "expression of PRDI-BF1 RNA", "setting": "PRDI-BF1", "result": "increased expression"}, {"measurement": "OVA-specific IgG, primary response", "setting": "OVA; 0.2 μg OVA + 5 μg fusion protein i.p., day 14 sera", "result": "high titers"}, {"measurement": "OVA-specific IgG after boost", "setting": "OVA; boost 0.2 μg OVA on day 14, day 21 sera", "result": "increased markedly"}, {"measurement": "HA-specific IgG, secondary response following boost", "setting": "Influenza hemaglutinin", "result": "far greater"}, {"measurement": "HA-specific IgG, primary response", "setting": "Influenza hemaglutinin", "result": "significantly increased the antibody response"}, {"measurement": "HA-specific CD8+ T cell response", "setting": "[2]", "result": "only detectable in spleen cells immunized with CD40L-FasL-IgFc"}, {"measurement": "HA-specific response by total T cells", "setting": "[2]", "result": "lowered the HA-specific response by total T cells"}]}
